US20220062299A1, “USE OF GLUCOCORTICOID STEROIDS IN PREVENTING AND TREATING CONDITIONS OF MUSCLE WASTING, AGING AND METABOLIC DISORDER” (NORTHWESTERN UNIVERSITY, priority 2018, published 2022)

Legend:
mdx mice [1] = experiment: Metabolic cages (indirect calorimetry), mdx mice, 40 weeks; format: in vivo, mouse; settings: weekly prednisone
Method: Metabolic cages. VO2 (ml/h/kg) and energy expenditure to body weight (kcal/h/kg) were assessed via indirect calorimetry using the TSE Automated Phenotyping System PhenoMaster (TSE system, Chesterfield, Mo.). Mice were singly housed in their home cages in an enclosed environmental chamber (part of the TSE system) with controlled temperature and light/dark cycles (12 hours each; 6 AM-6 PM). […] Measurements of CO2 production and O2 consumption occurred using the attached gas analyzer to assess energy expenditure. In addition, physical activity in three dimensions was monitored via infrared beam breaks through frames mounted on the perimeter of the metabolic cages. Enrichment items were omitted to avoid insulation from sensors and infrared light beam path obstruction. Results are expressed as 12 hour-period values (light/dark; 10 values per mouse). Metabolic cage assays were conducted blinded to treatment groups.

[2] = test system: mdx; Dysf-null; Sgcg-null mice; experiment: Once-weekly glucocorticoids in three murine models of muscle disease; format: in vivo, mouse; settings: 1 mg/kg once-weekly, contrary to daily dosing
Source text: Glucocorticoid steroids are widely prescribed drugs for chronic inflammatory conditions, and their daily intake generally correlates with muscle wasting and weakness, osteoporosis, obesity and metabolic disorders. […] (Quattrocelli et al, J Clin Invest 2017; Quattrocelli et al, Am J Pathol 2017; Quattrocelli et al., JCI Insight. 2019 Dec. 19; 4(24). pii: 132402. doi: 10.1172/jci.insight.132402).

mdx mice [3] = experiment: Dosing of metabolic and endocrine biomarkers in serum and tissues, mdx mice, 4-week daily or weekly prednisone; format: in vivo; settings: 4-week treatment, mean ± s.e.m
Method: Animal handling and steroid regimens. Mice were housed in a pathogen-free dedicated vivarium in accordance with Institutional Animal Care and Use Committee (IACUC) guidelines. Euthanasia was performed through carbon dioxide inhalation followed by cervical dislocation and heart removal. All methods using living animals in this study were performed in ethical accordance with the American Veterinary Medical Association (AVMA) and under protocols fully approved by both the Institutional Animal Care and Use Committee (IACUC) at Northwestern University Feinberg School of Medicine (protocol number ISO00000761). Consistent with the ethical approvals, all efforts were made to minimize suffering. Mice were fed ad libitum with Mouse Breeder Sterilizable Diet (#7904; Harlan Teklad, Indianapolis, Ind.) and maintained on a 12-hour light/dark cycle. mdx mice from the DBA/2J background were obtained from the Jackson Laboratory (Bar Harbor, Me.; stock #013141) and interbred. Male mice were used for reported experiments. Age at start was approximately 6 months for short-term experiments, approximately 6 weeks for long-term experiments. Dysferlin-null (Dysf-null) mice from the 129T2/SvEmsJ background were previously characterized (Demonbreun et al., 2011; Demonbreun et al., 2014). Age at start was approximately 9 months for long-term experiments. For experiments with Dysf-null and wildtype mice, both females and males (approximately 1:1 ratio) were randomized in treatment groups. […] Dosing was based on weekly weight measurements (1 mg/kg body weight, (Sali et al., 2012)) in 100 μl total PBS volume per dose. […] On injection days, stock solutions stored at −20° C. were diluted into sterile Eppendorf tubes containing sterile phosphate buffered saline (PBS) (#14190; Thermo Fisher, Waltham, Mass.). Puromycin (cat #A1113803, Thermo Scientific, Waltham, Mass.) was administered i.p. as 0.040 μmol/body g, and tissues were snap-frozen 30 minutes after injection. Sterile BD Micro-Fine IV Insulin Syringes (#14-829-1A; Fisher Scientific, Waltham, Mass.) were used to inject the intraperitoneal cavity of non-sedated animals. All animal analyses both during treatment and at endpoint were conducted blinded to treatment groups.
Dosing of metabolic and endocrine biomarkers. Glycogen was quantitated using the Glycogen Assay Kit (#ab65620; Abcam, Cambridge, Mass.) from approximately 25 mg frozen-pulverized whole tissue, following manufacturer's instructions and internal standards for calculating μg/mg values. For measurement of whole-tissue ATP/NAD^+ levels, approximately 25 mg frozen-pulverized tissue was extracted in 10% perchloric acid and neutralized in 0.75 M K2CO3, as previously described (Ramsey et al., 2009). NAD+ and ATP were measured by high-pressure liquid chromatography (HPLC) with Shimadzu LC-20A pump (Shimadzu Scientific Instr Inc, Addison, Ill.) and UV-VIS detector, using a Supelco LC-18-T column (15 cm×[…]; #58970-U; Millipore-Sigma, St Louis, Mo.). […] ATP and NAD^+ eluted as sharp peaks at 3 and 14 minutes, respectively, and were normalized to tissue weight of frozen liver tissue for calculating pmol/mg values. Corticosterone was measured in mouse serum and cortisol was measured in human serum using dedicated ELISA kits (#ADI-900-097, Enzo Life Science, Farmingdale, N.Y.; #K7430-100, BioVision, Milpitas, Calif.) according to manufacturer's instructions and internal standards to calculate ng/ml values. Insulin levels were quantitated in mouse and human serum with species-specific ELISA kits (#10-1247-01 (mouse-specific); #10-1113-01 (human-specific); Mercodia, Uppsala, Sweden), following manufacturer's instructions and internal standards to calculate ng/ml values. Free fatty acids were quantitated using Enzychrom Free Fatty Acid Assay kit (#EFFA-100; BioAssay Systems, Hayward, Calif.), following kit's instructions and standards to calculate μM (serum) and nmol/mg (tissue) values. […]

C[C@]12C=CC(=O)C=C1CC[C@@H]1[C@@H]2C(=O)C[C@@]2(C)[C@H]1CC[C@]2(O)C(=O)CO [prednisone, Prednisone]
oxygen consumption (VO2) and energy expenditure during nocturnal activity (mdx mice [1]): increased | muscle force and mass [2]: improved | serum insulin (mdx mice [3]; daily prednisone 1 mg/kg i.p.): 3.09 ± 0.14 ng/mL | serum BCAA (mdx mice [3]; daily prednisone): 657 ± 24.2 µM | serum corticosterone (mdx mice [3]; daily prednisone): 127 ± 5.34 ng/mL | serum free fatty acids (mdx mice [3]; daily prednisone): 546 ± 13.5 µM | serum β-hydroxybutyrate (mdx mice [3]; daily prednisone): 476 ± 4.81 µM | tissue BCAA, diaphragm (mdx mice [3]; daily prednisone): 64 ± 3.09 nmol/mg | tissue BCAA, heart (mdx mice [3]; daily prednisone): 2.38 ± 0.09 nmol/mg | tissue BCAA, omental fat (mdx mice [3]; daily prednisone): 28.2 ± 0.99 nmol/mg | tissue BCAA, quadriceps (mdx mice [3]; daily prednisone): 118 ± 2.74 nmol/mg | tissue free fatty acids, diaphragm (mdx mice [3]; daily prednisone): 2.07 ± 0.09 nmol/mg | tissue free fatty acids, heart (mdx mice [3]; daily prednisone): 0.86 ± 0.03 nmol/mg | tissue free fatty acids, omental fat (mdx mice [3]; daily prednisone): 6.01 ± 0.3 nmol/mg | tissue free fatty acids, quadriceps (mdx mice [3]; daily prednisone): 4.11 ± 0.11 nmol/mg | tissue β-hydroxybutyrate, diaphragm (mdx mice [3]; daily prednisone): 28.4 ± 0.93 nmol/mg | tissue β-hydroxybutyrate, heart (mdx mice [3]; daily prednisone): 24.6 ± 0.88 nmol/mg | tissue β-hydroxybutyrate, omental fat (mdx mice [3]; daily prednisone): 58.8 ± 2.29 nmol/mg | tissue β-hydroxybutyrate, quadriceps (mdx mice [3]; daily prednisone): 31.8 ± 0.48 nmol/mg | serum insulin (mdx mice [3]; weekly prednisone 1 mg/kg i.p.): 1.73 ± 0.07 ng/mL | serum BCAA (mdx mice [3]; weekly prednisone): 457 ± 14.1 µM | serum corticosterone (mdx mice [3]; weekly prednisone): 194 ± 5.05 ng/mL | serum free fatty acids (mdx mice [3]; weekly prednisone): 386 ± 17.3 µM | serum β-hydroxybutyrate (mdx mice [3]; weekly prednisone): 425 ± 4.92 µM | tissue BCAA, diaphragm (mdx mice [3]; weekly prednisone): 43.8 ± 0.93 nmol/mg | tissue BCAA, heart (mdx mice [3]; weekly prednisone): 1.65 ± 0.07 nmol/mg | tissue BCAA, omental fat (mdx mice [3]; weekly prednisone): 18.1 ± 0.94 nmol/mg | tissue BCAA, quadriceps (mdx mice [3]; weekly prednisone): 89.6 ± 3.06 nmol/mg | tissue free fatty acids, diaphragm (mdx mice [3]; weekly prednisone): 1.11 ± 0.07 nmol/mg | tissue free fatty acids, heart (mdx mice [3]; weekly prednisone): 0.44 ± 0.02 nmol/mg | tissue free fatty acids, omental fat (mdx mice [3]; weekly prednisone): 4.35 ± 0.07 nmol/mg | tissue free fatty acids, quadriceps (mdx mice [3]; weekly prednisone): 1.25 ± 0.07 nmol/mg | tissue β-hydroxybutyrate, diaphragm (mdx mice [3]; weekly prednisone): 17.1 ± 0.77 nmol/mg | tissue β-hydroxybutyrate, heart (mdx mice [3]; weekly prednisone): 16.5 ± 0.56 nmol/mg | tissue β-hydroxybutyrate, omental fat (mdx mice [3]; weekly prednisone): 19 ± 0.39 nmol/mg | tissue β-hydroxybutyrate, quadriceps (mdx mice [3]; weekly prednisone): 16.4 ± 1.48 nmol/mg
